Measured values from patent publication US11326207B2, “Sequencing using non-natural nucleotides” (Ultima Genomics, Inc., priority 2017, dated 2022).

Tests used:
Bst DNA polymerase v.2.0 [1] = experiment: Competition assay: one base extension, capillary electrophoresis and flow cytometry (Example 6); assay type: biochemical
Protocol: The final concentrations of various nucleotides in the mixtures were 5 micromolar (μM). […] A solution of biotinylated template (2 microliters (μL) of 100 μM) and dye-labeled primer (4 μL of 100 μM) were combined in annealing buffer (40 μL; Tris (10 millimolar (mM)), EDTA (1 mM), NaCl (100 mM)). The resulting solution was heated to 95° C. and allowed to slowly cool to room temperature. […] New England Biolabs) for five minutes. […] Next, a portion of the suspended magnetic beads (10 μL) were removed and placed in a PCR tube. A solution of nucleotides (10 μL) was added to the tube and the tube incubated for 40 seconds (s) at 50° C. The enzyme reaction was stopped with the addition of 5 μL of 50 mM EDTA. The beads were washed with 2×100 μL TET and resuspended in 20 μL TET. […] The eluant of the remaining beads was removed and 40 μL of 95:5 formamide:10 mM EDTA was added to the beads. A portion of the formamide solution (1 μL) was added to 40 μL 95:5 formamide EDTA. The solutions were examined by capillary electrophoresis (CE) on an ABI 3730 instrument and the peaks identified and quantitated by peak height. The experimental protocol is summarized schematically in FIG. 2.

Bst DNA polymerase v.2.0 [2] = experiment: Flow cytometry assay: tolerance of dye-labeled dUTP* compared to dUTP analogs (Example 7); assay type: biochemical; conditions: for Tolerance: tolerance of dUTP* compared to the named dUTP^0
Protocol: A solution of biotinylated template (2 microliters (μL) of 100 μM) and dye-labeled primer (4 μL of 100 μM) were combined in annealing buffer (40 μL; Tris (10 millimolar (mM)), EDTA (1 mM), NaCl (100 mM)). The resulting solution was heated to 95° C. and allowed to slowly cool to room temperature. A portion of this solution (8 μL) was mixed with streptavidin-labeled magnetic beads (4 μL of Invitrogen Dynabeads™ MyOne™ Streptavidin C1, 10 milligrams/milliliter (mg/mL); washed and eluant removed) and 2× bead wash buffer (8 μL; 10 mM Tris, pH 7.5, 1 mM EDTA, 2 M NaCl, 0.01% Triton X-100). After washing with TET solution (10 mM Tris, 1 mM EDTA, 0.05% Triton X-100) the beads were treated with Bst DNA polymerase v.2.0 (8 μL of 8 units (U)/μL; New England Biolabs) for five minutes. The excess enzyme was removed by washing with TET and the beads were suspended in 1×DNA polymerase buffer solution (20 mM Tris, pH 8, 10 mM NaCl, 2 mM MgCl2, 0.01% Triton X-100). The sequence of the biotinylated template was /52 Bio//iSp18/[…] […] (SEQ ID NO: 12), where “5” is indicative of the 5′-end of the oligo, 2-Bio indicates dual biotin, and iSP18 indicates a PEG spacer. […] […] (SEQ ID NO: 13), where “5” indicates the 5′-end of the oligo and JOE indicates a fluorescent dye attached to the oligo.
Next, a portion of the suspended magnetic beads (10 μL) were removed and placed in a PCR tube. A solution of nucleotides (10 μL) was added to the tube and the tube incubated for 40 seconds (s) at 50° C. The enzyme reaction was stopped with the addition of 5 μL of 50 mM EDTA. The beads were washed with 2×100 μL TET and resuspended in 20 μL TET. A portion of the bead solution (1 μL) was added to TE (200 μL) and the beads examined for red fluorescence on a flow cytometer (BD Accuri™, APC channel). The eluant of the remaining beads was removed and 40 μL of 95:5 formamide:10 mM EDTA was added to the beads. A portion of the formamide solution (1 μL) was added to 40 μL 95:5 formamide EDTA. The solutions were examined by capillary electrophoresis (CE) on an ABI 3730 instrument and the peaks identified and quantitated by peak height. The experimental protocol is summarized schematically in FIG. 2.
Tolerance was measured at two molar fractions, […] and 0.05, for each of the four dUTP analogs.

With `Cc1cn([C@H]2C[C@H](O)[C@@H](COP(=O)(O)OP(=O)(O)OP(=O)(O)O)O2)c(=O)[nH]c1=O` [TTP, thymidine triphosphate, reference compound] as the molecule, how does the “CE product peaks of one base extension in competition with dUTP*” value (Bst DNA polymerase v.2.0 [1]; 5 micromolar, 40 s at 50° C.) read?
The value was “yields only a Pr-T peak”.

And the “flow cytometry signal of one base extension in competition with dUTP*” value (Bst DNA polymerase v.2.0 [1]; beads before stripping)?
Its value is “relatively low”.

And the Apparent fraction (Bst DNA polymerase v.2.0 [2]; molar fraction dUTP* 0.05)?
Its Apparent fraction is 0.058.

And the Red signal (Bst DNA polymerase v.2.0 [2]; molar fraction dUTP* 0.05, rest the named dUTP^0)?
Its Red signal is 2,900.

What about the Apparent fraction (Bst DNA polymerase v.2.0 [2]; molar fraction dUTP* 0.5) of the same molecule?
Its Apparent fraction is 0.42.

What about the Red signal (Bst DNA polymerase v.2.0 [2]; molar fraction dUTP* 0.5, rest the named dUTP^0) of the same molecule?
Its Red signal is 21,000.

And the Tolerance (Bst DNA polymerase v.2.0 [2]; molar fraction dUTP* 0.05)?
Its Tolerance is 1.2.

What about the Tolerance (Bst DNA polymerase v.2.0 [2]; molar fraction dUTP* 0.5) of the same molecule?
The Tolerance was 0.8.
